Source: PMC12746157, “Light-Regulated Agonists Spatiotemporally Activating the Vitamin D Receptor Mitigate Psoriasis-like Inflammation in Mice without Inducing Hypercalcemia” (ACS Central Science, 2025)

Experiments:
[1] = UV-Vis absorption spectra and thermal relaxation of the cis isomers in DMSO; type: physicochemical; conditions: 60 μM in 100% DMSO, 37 °C; for λn−π* (cis): after illumination; for λπ–π* (trans): dark
Description: (§1) The UV–vis absorbance spectra of all molecules were measured in the dark and after the application of light of different wavelengths ranging from 365 to 770 nm (Figure A and Figures S1–S3). […] Consequently, violet/UV light below 405 nm efficiently promoted photoisomerization, which produced a dramatic decrease in the π-π* band and a significant increase in the n-π* band at around 445 nm (Table ). […] The proportion of molecules at the PSS in trans isomer upon constant illumination with light at 525 nm and cis at 365 nm was in general above 50%, reaching a remarkable >99% for compound 11d (Table and Figures S4 and S5). […] The greater stability of the trans isomer was consistent with previous quantum mechanical and molecular mechanics predictions. Measuring the photoisomerization properties of compound PhotoVDRM allowed us to determine the photoisomerization quantum yields of the compound by solving a differential equation for photoisomerization. We used MATLAB to perform regression and arrive at the following photoisomerization quantum yields: ϕ365 nm (trans) = 0.0427, ϕ365 nm (cis) = 0.0501, ϕ470 nm (trans) = 0.1857, and ϕ470 nm (cis) = 0.2281 (Figure S9). Compound PhotoVDRM was also evaluated in aqueous buffer used for pharmacological experiments (0.5% DMSO) showing a thermal relaxation of 3 h, almost 7 times faster than in pure DMSO (Figure B). […] A deeper photocharacterization of PhotoVDRM allowed us to measure the kinetics of photoconversion upon constant illumination with two wavelengths and three light intensities (Figure D and Figure S10). […] Indeed, with LED devices producing light at intensities as low as 0.05 mW/mm^2 we were able to transform trans to cis in around 15.5 s. This time was reduced to 6 and 2 s when the light intensity was increased to 0.15 and 0.75 mW/mm^2. […] Therefore, we proceeded to test the ability of the chemical library to activate the VDR under different light conditions.
2. Photochemical characterization. […]
(200 µL per well). The absorption spectra were recorded from 300 to 600 nm with 2 nm fixed intervals using a Tecan Spark 20M Multimode microplate reader. Initial measurements were performed in the dark, followed by spectra acquired immediately after each 3 min period of light irradiation at different wavelengths using 96-well LED array plates (LEDA Teleopto). Theoretical absorbance spectra corresponding to the pure cis isomer (100%) of each compound were calculated in order to obtain the theoretical percentage of cis isomer at each wavelength, according to the method described by Ernst Fischer (1967). Thermal relaxation kinetics of the experimental cis isomers were assessed in quartz cuvettes (10 mm optical path) containing freshly prepared 50 […]
Dark state absorbance at 365 nm was recorded at 37
ºC using a ThermoFisher Evolution 350 UV-Vis spectrophotometer. Samples were then irradiated for 3 minutes at 365 nm with a CoolLED pE-4000 light sourceto induce trans → cis photoisomerization.. Absorbance at 365 nm was subsequently monitored over 48 h: every 15 min during the first 24 h, and every 60 min during the following 24 h. Relaxation half-lives were determined by fitting the absorbance-time data to a […] exponential model using GraphPad Prism v10.4.1. […]

[2] = Photostationary state (PSS) determination by HPLC-MS in aqueous assay buffer; type: physicochemical; conditions: for PSS365 (% cis) / PSS525 (%trans): 21 °C, HPLC-MS, 60 μM, aqueous buffer 0.6% DMSO; for PSS365 (% cis): 3 min illumination 365 nm; for PSS525 (%trans): 3 min illumination 525 nm
Description: as §1
Photostationary state (PSS) determination. In a transparent vial, solutions of the compounds were prepared at a concentration of 60 µM from a 10 mM stock in DMSO, using the assay buffer of pharmacological experiments for dilution. Prior to illumination, a volume of 500 µL was transferred to an amber vial for the "dark" sample. The same procedure was repeated after exposing the transparent vial containing the 60 µM solutions to the following light conditions:
365nm for 3 minutes and 525nm for 3 minutes. […]
difference on isomeric proportions. For each sample, 20 µL was analyzed by HPLC-MS, and the isomer ratios were determined at the isosbestic point.
Isosbestic point determination. The solvent percentage for the elution of each isomer were calculated based on their retention times from HPLC analysis. Subsequently, 50 µM solutions were prepared from the 10 mM DMSO stock solution of each compound using the previously determined HPLC solvent mixture. The UV spectrum for each solution was recorded after illumination at 365 nm (30 seconds), at 400 nm (30 seconds), and at 525 nm (30 seconds). The spectra were overlaid to identify the isosbestic point of maximum intensity.
HPLC conditions. Analytical HPLC was performed on a Thermo Ultimate 3000SD (Thermo Scientific Dionex) coupled to a PDA detector and Mass Spectrometer LTQ XL ESI-ion trap (Thermo Scientific). Cromatographic separations were performed using a ZORBAX Eclipse Plus C18 (4.6 x 150mm; 3.5µm) column. The mobile phase consisted of an isocratic mixture of solvent A (water with 0.05% of formic acid) and solvent B (acetonitrile with 0.05% formic acid) at a 3:7 ratio for compounds 10a-d and a 2:3 ratio for compounds 11a-d and 12a-d. […]

Row | Structure (SMILES) | t 1/2 (thermal relaxation of cis) [1] [h] | λn−π* (cis) [1] [nm] | λπ–π* (trans) [1] [nm] | PSS365 (% cis) [2] [%] | PSS525 (%trans) [2] [%] | proportion of cis at PSS 460 nm ([2]; 460 nm, assay buffer (Figure S4D)) [%]
1 | COC(=O)c1ccc(-c2cccc(/N=N/c3ccc(OCC(O)C(C)(C)C)c(C)c3)c2)cc1 (centres unmarked) [Compound 10a] | 9.3 | 446 | 366 | 83 | 86 | –
2 | COC(=O)c1ccc(-c2cccc(/N=N/c3ccc(OCC(O)C(C)(C)C)cc3C)c2)cc1 (centres unmarked) [Compound 10b] | 7.6 | 440 | 360 | 78 | 73 | –
3 | Cc1cc(/N=N/c2cccc(-c3ccc(C(=O)O)cc3C)c2)ccc1OCC(O)C(C)(C)C (centres unmarked) [Compound 11c] | 25.4 | 444 | 364 | 96 | 84 | –
4 | Cc1cc(OCC(O)C(C)(C)C)ccc1N=Nc1cccc(-c2ccc(C(=O)O)cc2)c1 (centres unmarked) [Compound 11b] | 20.5 | 442 | 362 | 95 | 55 | 63
5 | COC(=O)c1ccc(-c2cccc(/N=N/c3ccc(OCC(O)C(C)(C)C)c(C)c3)c2)c(C)c1 (centres unmarked) [Compound 10c] | 12.5 | 444 | 366 | 73 | 83 | –
6 | Cc1cc(OCC(O)C(C)(C)C)ccc1/N=N/c1cccc(-c2ccc(C(=O)O)cc2C)c1 (centres unmarked) [Compound 11d] | 17.7 | 444 | 362 | >99 | 61 | –
7 | Cc1cc(/N=N/c2cccc(-c3ccc(C(=O)O)cc3)c2)ccc1OCC(O)C(C)(C)C (centres unmarked) [Compound 11a] | 9.1 | 440 | 366 | 94 | 74 | –
8 | COC(=O)c1ccc(-c2cccc(/N=N/c3ccc(OCC(O)C(C)(C)C)cc3C)c2)c(C)c1 (centres unmarked) [Compound 10d] | 8.2 | 438 | 360 | 88 | 81 | –

Second part, led by results:

Row | t 1/2 (thermal relaxation of cis) [1] [h] | λn−π* (cis) [1] [nm] | λπ–π* (trans) [1] [nm] | PSS365 (% cis) [2] [%] | PSS525 (%trans) [2] [%] | Structure (SMILES) | proportion of cis at PSS 460 nm ([2]; 460 nm, assay buffer (Figure S4D)) [%]
9 | 9.1 | 444 | 364 | 80 | 87 | Cc1cc(/N=N/c2cccc(-c3ccc(CO)cc3)c2)ccc1OCC(O)C(C)(C)C (centres unmarked) [Compound 12a] | –
10 | 6.8 | 444 | 362 | 84 | 84 | Cc1cc(OCC(O)C(C)(C)C)ccc1/N=N/c1cccc(-c2ccc(CO)cc2)c1 (centres unmarked) [Compound 12b] | –
11 | 8.2 | 446 | 362 | 88 | 82 | Cc1cc(OCC(O)C(C)(C)C)ccc1/N=N/c1cccc(-c2ccc(CO)cc2C)c1 (centres unmarked) [Compound 12d] | –
